The values below come from PubChem BioAssay AID179 (DTP/NCI, 2004).

Usually EC50 stands for the concentration giving half of the maximal effect. Broadly, the IC50 is the concentration that gives 50% inhibition. Low readings indicate higher potency, high ones lower potency.

Several values for one entry are separate records, joined by “and”; a condition that tells them apart may be missing. Equal entries are not always repeated. Activity calls are given as the source filed them.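 Rule for the calls: active = compounds giving half or more protection of infected cells from virus-caused growth loss, again on retest; inactive = the rest.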 A value given as a limit tells only on which side of the number the result lay.

The subject of the test is CEM cells HIV-1 protection, formazan growth assay. Briefly: NCI AIDS Antiviral Assay. The settings on record: for IC50: measured here: growth of uninfected CEM cells. The procedure, abridged:
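Steps: treat uninfected and HIV-1-infected human CEM cells at five drug levels; quantify growth by soluble formazan; retest any compound reaching 50% protection; classify actives from the retest.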

On to `COC(=O)c1cc(Cc2cc(C(c3cc(Cc4cc(Cl)c(O)c(C(=O)OC)c4)c(O)c(C(=O)OC)c3)C(Cl)(Cl)Cl)cc(C(=O)OC)c2O)cc(Cl)c1O`, for which the EC50 was more than 200 µM and the IC50 was more than 200 µM.

For the compound `COc1ccc(/C=C2\Sc3scc(-c4ccc([N+](=O)[O-])cc4)[n+]3C2=O)cc1OC`, the EC50 is more than 200 µM and the IC50 amounted to 15.8 µM.

On to `O=C(O)C(O)(O)C(O)(O)C(=O)O`, for which the EC50 was more than 200 µM and the IC50 is more than 200 µM.

In the case of `CCCC[C@@H](C)/C=C1\CN2CCC[C@H]2[C@@](C)(O)[C@@H]1O`, the EC50 is more than 200 µM and the IC50 came to 75.9 µM.

Take `O=C1CC(c2ccccc2)NC(=O)N1CCN1CCOCC1` (stereo not given): the EC50 was more than 200 µM and the IC50 is more than 200 µM.

For the compound `CC1(C2COC(=O)C2)SCCCS1` (stereo not given), the EC50 was more than 100 µM and the IC50 came to 60.3 µM.

For `C=CCOC1(CC=C)C(=O)OC2C(O)COC21O` (stereo not given), the EC50 is more than 200 µM and the IC50 was more than 200 µM.

As for `O=c1[nH]c(=O)n(COCc2ccccc2)c2ccccc12`, the EC50 was more than 200 µM and the IC50 is 174 µM.

As to `CCOC(=O)C(=Cc1cccc(Cl)c1)C(=O)OCC`, the EC50 was more than 91.2 µM and the IC50 came out at 6.17 µM.

In the case of `Oc1ccccc1C1SCc2nc3ccccc3n21` (stereo not given), the EC50 was more than 26.9 µM and the IC50 is more than 26.9 µM.

In the case of `CC(/C=C/C=C/C=C/C=C/C=C/C(O)=C1/C(=O)C(CCC(=O)O)N(C)C1=O)=C\C(C)C(OC1CC(O)C(O)C(C)O1)C(C)C` (stereo not given), the outcome was inactive.

Consider `CCCCCC=C(c1cc(Br)c(OC)c(Br)c1)c1cc(Br)c(OC)c(Br)c1`, for which the EC50 is more than 151 µM and the IC50 is more than 151 µM.

`CCOC(=O)/C(=C\n1c(=O)[nH]c(=O)[nH]c1=S)C(=O)c1ccccc1`: the outcome was inactive.

Take `CCOC(=O)c1nnsc1NN=C(C)C`: the EC50 is more than 200 µM and the IC50 is more than 200 µM.

Regarding `Clc1cccc(Cl)c1Nc1ccccc1Cc1nc2ccccc2[nH]1`, the EC50 is more than 200 µM and the IC50 stood at 75.9 µM.

With `NNC(=O)c1nnc(NN)[nH]c1=O`, the EC50 was more than 200 µM and the IC50 was more than 200 µM.

Turning to `O=C1OC2CCCC[C@@H]2C2C[C@]34CCCCC3[C@@H](C(=O)O4)C12` (stereo not given in full), the EC50 is more than 23.4 µM and the IC50 was more than 23.4 µM.

For the compound `Cc1cc(O)c(/C=N/C(=S)Nc2cc(Cl)ccc2Cl)c(=O)o1`, the EC50 was more than 50.1 µM and the IC50 was more than 50.1 µM.

`O=C([O][Bi]([c]1ccccc1)[c]1ccccc1)c1ccccc1`: the EC50 was more than 38.9 µM and the IC50 is more than 38.9 µM.

For the compound `O=C1N[C@@H]2CCC[C@@H]2[C@@H]1c1ccc(Cl)cc1`, the EC50 is more than 380 µM and the IC50 worked out at 155 µM.

As for `N#CCCN(CCC#N)c1ccc(/C=C2\N=C(c3cc([N+](=O)[O-])ccc3Cl)N(NC(=O)CC(=O)Nc3ccccc3Cl)C2=O)cc1`, the EC50 was more than 11 µM and the IC50 is more than 11 µM.

For the compound `CCCC(O)[C@@]1(CC)CC(C)C(O)(C2(C)C[C@H](C)[C@@H](C(CC)C(=O)C(C)[C@@H](O)[C@H](C)C3OC(O)(C(CC)C(=O)O)[C@@H](C)C(O)C3CC)O2)O1` (stereo not given in full), the EC50 is 0.138 µM and the IC50 came to 1.78 µM.

Turning to `COC1N(C2CC(F)C(CO)O2)C(=O)NC(=O)C1(C)I` (stereo not given), the EC50 is 0.00339 µM; the outcome was active; the IC50 was 57.5 µM and 6.17 µM.

Regarding `CN(COC(=O)c1ccccc1)c1nc(N(C)COC(=O)c2ccccc2)nc(N(C)COC(=O)c2ccccc2)n1`, the result was inactive.

As to `COC(=N)CCSSCCC(=N)OC`, the EC50 is more than 200 µM and the IC50 was more than 200 µM.

For `COc1ccc(N)c(CC2c3ccccc3CCN2C)c1` (stereo not given), the outcome was inactive.

Regarding `CN(C)c1c([O-])c(=[N+](C)C)c1=O`, the outcome was inactive.

For the compound `NCCCCNC(c1ccccc1)C(O)c1ccccc1` (stereo not given), the outcome was inactive.

In the case of `Brc1cc2[nH]c(-c3ccccc3)c(Br)c2c(Br)c1Br`, the EC50 is more than 200 µM and the IC50 came out at 5.13 µM.

On to `COc1ccc(C(C2=C(O)CC(C)OC2=O)C2=C(O)CC(C)OC2=O)cc1` (stereo not given), for which the EC50 was more than 661 µM and the IC50 turned out to be 427 µM.

As to `CCOC(=O)c1cc2c3c(c1)C(=O)CCN3CCC2=O`, the result was inactive.

Turning to `COC1(OC)CC2C(=O)N(Cc3ccccc3)C1CC2S(=O)(=O)c1ccccc1` (stereo not given), the outcome was inactive.

On to `CCC12CCCN(Cc3ccccc3)C1c1c([nH]c3ccccc13)C(C(=O)OC)C2` (stereo not given), for which the EC50 is more than 30.9 µM and the IC50 is more than 30.9 µM.

Turning to `COc1cccc(OC)c1/C=N\N1C(=O)c2ccccc2C1=O`, the EC50 was more than 115 µM and the IC50 was 12 µM.

In the case of `CCCCCCc1cc(C(=O)Nc2cccc(C(F)(F)F)c2)nc(N)n1`, the result was inactive.

`N#CCc1nc(-c2ccccc2)n[nH]1`: the EC50 is more than 200 µM and the IC50 was more than 200 µM.

Consider `COC(=O)c1ccc2c(c1)CC1(C2)Cc2cc3c(cc2C1)CCC3`, for which the EC50 is more than 200 µM and the IC50 was more than 200 µM.

As to `CS(=O)(=O)N(N(CCCl)S(=O)(=O)c1ccccc1)S(C)(=O)=O`, the EC50 is more than 126 µM and the IC50 was determined as 79.4 µM.

As to `N#CCCN(CCC#N)c1ccc(/C=C(/NC(=O)Nc2ccccc2Cl)NC(=O)c2cc([N+](=O)[O-])ccc2Cl)cc1`, the EC50 is more than 12.3 µM and the IC50 was 1.91 µM.

Regarding `COc1cc(NCC(C#N)C#N)ccc1N=Nc1ccc([N+](=O)[O-])cc1`, the EC50 is more than 38.9 µM and the IC50 was more than 38.9 µM.

Take `CCC(CCCC[C@H]1CC[C@@H]2CC(=O)C[C@H]12)OC` (stereo not given in full): the EC50 is more than 200 µM and the IC50 is more than 200 µM.

Consider `Clc1ccccc1CN1COc2c(cc(Cl)c3cccnc23)C1`, for which the EC50 was more than 87.1 µM and the IC50 was found to be 4.57 µM.

With `O=[N+]([O-])c1ccccc1S(=O)c1ccccc1[N+](=O)[O-]`, the EC50 is more than 204 µM and the IC50 worked out at 3.47 µM.

As to `CSc1nnc(N(C(C)C)C(C)C)c2nc[nH]c12`, the EC50 is more than 200 µM and the IC50 is more than 200 µM.

Take `CCOC(=O)c1nc2c(OC)nn(O)cc-2c1Br`: the EC50 is more than 794 µM and the half-maximal inhibitory concentration (IC50) is more than 794 µM.

On to `C=CCc1c(C(O)CNC(C)C)ccc(OC)c1OCc1ccccc1` (stereo not given), for which the EC50 is more than 200 µM and the IC50 turned out to be 30.2 µM.

Regarding `O=C1C(=O)c2ccccc2C(O)=C1C(C1=C(O)c2ccccc2C(=O)C1=O)c1ccccc1`, the EC50 is more than 200 µM and the IC50 was 20.9 µM.

Turning to `C/C(CC(=O)Nc1ccc(NC(=O)C/C(C)=N\NC(N)=O)cc1)=N/NC(N)=O`, the EC50 is more than 240 µM and the IC50 is more than 240 µM.

As for `Fc1cccc(C2ON=C(c3ccccc3)N2C23CC4CC(CC(C4)C2)C3)c1` (stereo not given), the EC50 is more than 200 µM and the IC50 was more than 200 µM.

As for `CC(C)OP(=O)(OC(C)C)C(=Nc1ccc(N=C(NNc2ccc([N+](=O)[O-])cc2)P(=O)(OC(C)C)OC(C)C)cc1)NNc1ccc([N+](=O)[O-])cc1`, the EC50 is more than 3.55 µM and the IC50 is more than 3.55 µM.

Turning to `N#CCC(=O)N/N=C1/C(=O)N(c2ccc(Cl)cc2)C(=O)C(=O)C1c1nc2ccccc2s1` (stereo not given), the result was inactive.

As for `CCOC(C)O[C@H]1C(=O)OCC1(C)C` (stereo not given in full), the EC50 was 77.6 µM and the IC50 is more than 200 µM.
